Legend:
rats [1] = assay: Fat excretion in rats on a high-fat diet (30% of calories as corn oil) for 9 days with XENICAL, Example 4; type: in vivo, rat; details: 400 ppm XENICAL without or with 0.5% HIPE foam in diet
Procedure: (§1) Three groups of rats were matched by weight and receive a high-fat diet (30% of calories as corn oil) for 9 days. One of the groups also received 400 ppm XENICAL® as part of the diet. The third group received both 400 ppm XENICAL® and 0.5% ground particulate HIPE foam from Example 1, Sample 1 as part of the diet. Total diet intake was measured throughout the study, and fecal output was measured in tail cups fitted to the animals during the last two days of the study. The pooled two-day collection of feces from each animal was analyzed for fat content according to AOAC method 954.04, published by AOAC International, Gaithersburg, Md.

rats [2] = assay: Observer rating of oil on the fur of rats, Example 4; type: in vivo, rat
Procedure: as §1, with “Md. On days 5 and 7 of the study, the appearance of each animal was judged by two observers unaware of the dietary treatment of the animals. These observers assigned numerical values that increased with the amount of oil seen on the fur. A value of 1 was used to describe animals with no oil apparent on their fur. A value of 5 was used to describe animals with more than 90% of their fur coated with oil. Values of 2, 3, or 4, as appropriate, were assigned to animals with intermediate amounts of oil on the fur.” for “Md.”

CCCCCCCCCCC[C@@H](C[C@@H]1OC(=O)[C@H]1CCCCCC)OC(=O)[C@H](CC(C)C)NC=O [XENICAL ®, tetrahydrolipstatin]
Fat excretion versus the control group (rats [1]): significantly more fat than the control group
Mean Total 48 hour Lipid Excretion (rats [1]; corn oil diet 9 days, feces of last two days, control 0.16): 2.6 g
Excreted Fat (as % Ingested Fat) (rats [1]; corn oil diet 9 days, feces of last two days, control 3.9): 59.1 % Ingested Fat
Oil on fur rating compared with the other groups (rats [2]; 400 ppm XENICAL only versus control and XENICAL + foam): significantly different relative to the other two groups
Average Rating (oil on fur) (rats [2]; days 5 and 7, two blinded observers, scale 1 (no oil apparent on fur) to 5 (more than 90% of fur coated), control 1.03): 4.41

— US20080075688A1, “Use of non-digestible polymeric foams to sequester ingested materials thereby inhibiting their absorption by the body” (The Procter & Gamble Company, priority 2003, published 2008)
